Experiments:
[1] = Stability of green tea catechins during storage at room temperature (HPLC); type: physicochemical; settings: for catechins (% recovered): room temperature, pH 6.0
Method: Soya lecithin was dispersed in distilled water to yield different concentrations (0.05%; 0.1% and 0.2%) by stirring the mixes at 37° C. for 2 h. Phosphate buffer was added to each sample to give a final concentration of 20 mM at pH 6.0 before they were pre-homogenized with an Ultraturrax at full speed. The dispersions were flushed with nitrogen for 5 minutes and then green tea extract was added for a final concentration of 0.2%. After gentle stirring for 15 min the mixes were finally homogenized with a Microfluidizer processor (Microfluidics, Newton, Mass., USA) with 1 run at 250 bar. The same protocol was followed for preparing the green tea control except that no lecithin was added. The homogenized dispersions were filled into 1 lt glass bottles and were sterilized (30 sec at 80° C.) in a water bath heated with steam.
The sterilized samples were stored at room temperature up to 25 days. No microbiological contamination with mesophilic germs or Enterobacteriaceae was detected throughout the storage test.
Green tea catechins were analysed in the fresh and stored samples by HPLC on a C-18 column, using UV detection at 280 nm. For total catechin determination samples were treated with concentrated acetic acid and the extracts were stabilised with ascorbic acid, EDTA and acetonitrile. For free catechin determination each sample was previously spun at 14,000×g for 30 min using an Eppendorf (Dr Vaudaux A G, Binningen, C H) centrifuge 5415. The resulting supernatant was then treated as previously described. Stability and binding to phospholipids were calculated for (−)-epigallocatechin (Egc), (−)-epigallocatechin-3-gallate (Egcg), and caffeine.

[2] = Free and bound catechins: binding to lecithin (centrifugation, HPLC); settings: for binding to the lecithin (in words): green tea samples with lecithin 0.05, 0.1, 0.15%
Method: Phosphate buffer was added to each sample to give a final concentration of 20 mM at pH 6.0 before they were pre-homogenized with an Ultraturrax at full speed. The dispersions were flushed with nitrogen for 5 minutes and then green tea extract was added for a final concentration of 0.2%. After gentle stirring for 15 min the mixes were finally homogenized with a Microfluidizer processor (Microfluidics, Newton, Mass., USA) with 1 run at 250 bar. […] The homogenized dispersions were filled into 1 lt glass bottles and were sterilized (30 sec at 80° C.) in a water bath heated with steam. Green tea catechins were analysed in the fresh and stored samples by HPLC on a C-18 column, using UV detection at 280 nm. For total catechin determination samples were treated with concentrated acetic acid and the extracts were stabilised with ascorbic acid, EDTA and acetonitrile. For free catechin determination each sample was previously spun at 14,000×g for 30 min using an Eppendorf (Dr Vaudaux A G, Binningen, C H) centrifuge 5415. The resulting supernatant was then treated as previously described. Stability and binding to phospholipids were calculated for (-)-epigallocatechin (Egc), (-)-epigallocatechin-3-gallate (Egcg), and caffeine.

[3] = green tea 0.2% + lecithin 0.05%, storage 0 d
[4] = green tea 0.2% + lecithin 0.05%, storage 2 d
[5] = green tea 0.2% + lecithin 0.05%, storage 9 d
[6] = green tea 0.2% + lecithin 0.05%, storage 13 d
[7] = green tea 0.2% + lecithin 0.05%, storage 22 d
[8] = green tea 0.2% + lecithin 0.1%, storage 0 d
[9] = green tea 0.2% + lecithin 0.1%, storage 2 d
[10] = green tea 0.2% + lecithin 0.1%, storage 9 d
[11] = green tea 0.2% + lecithin 0.1%, storage 13 d
[12] = green tea 0.2% + lecithin 0.1%, storage 22 d
[13] = green tea 0.2% + lecithin 0.2%, storage 0 d
[14] = green tea 0.2% + lecithin 0.2%, storage 2 d
[15] = green tea 0.2% + lecithin 0.2%, storage 9 d
[16] = green tea 0.2% + lecithin 0.2%, storage 13 d
[17] = green tea 0.2% + lecithin 0.2%, storage 22 d

SMILES: Cn1c(=O)c2c(ncn2C)n(C)c1=O [caffeine]
- stability during storage (in words) [1]: quite stable under the chosen storage conditions

SMILES: Oc1cc(O)c2c(c1)O[C@H](c1cc(O)c(O)c(O)c1)[C@H](O)C2 [Egc, (−)-epigallocatechin]
- catechins (% recovered) [1, 3]: 100%
- catechins (% recovered) [1, 4]: 92%
- catechins (% recovered) [1, 5]: 72%
- catechins (% recovered) [1, 6]: 59%
- catechins (% recovered) [1, 7]: 42%
- catechins (% recovered) [1, 8]: 100%
- catechins (% recovered) [1, 9]: 94%
- catechins (% recovered) [1, 10]: 70%
- catechins (% recovered) [1, 11]: 57%
- catechins (% recovered) [1, 12]: 39%
- catechins (% recovered) [1, 13]: 100%
- catechins (% recovered) [1, 14]: 91%
- catechins (% recovered) [1, 15]: 64%
- catechins (% recovered) [1, 16]: 49%
- catechins (% recovered) [1, 17]: 30%
- catechins (% recovered) ([1]; green tea 0.2%, storage 0 d): 100%
- catechins (% recovered) ([1]; green tea 0.2%, storage 2 d): 93%
- catechins (% recovered) ([1]; green tea 0.2%, storage 9 d): 65%
- catechins (% recovered) ([1]; green tea 0.2%, storage 13 d): 50%
- catechins (% recovered) ([1]; green tea 0.2%, storage 22 d): 28%
- bound catechins (% recovered in pellet) [2, 3]: 1%
- bound catechins (% recovered in pellet) [2, 4]: 3%
- bound catechins (% recovered in pellet) [2, 5]: 1%
- bound catechins (% recovered in pellet) [2, 6]: 1%
- bound catechins (% recovered in pellet) [2, 7]: 0%
- bound catechins (% recovered in pellet) [2, 8]: 2%
- bound catechins (% recovered in pellet) [2, 9]: 4%
- bound catechins (% recovered in pellet) [2, 10]: 2%
- bound catechins (% recovered in pellet) [2, 11]: 2%
- bound catechins (% recovered in pellet) [2, 12]: 2%
- bound catechins (% recovered in pellet) [2, 13]: 5%
- bound catechins (% recovered in pellet) [2, 14]: 6%
- bound catechins (% recovered in pellet) [2, 15]: 5%
- bound catechins (% recovered in pellet) [2, 16]: 5%
- bound catechins (% recovered in pellet) [2, 17]: 6%
- bound catechins (% recovered in pellet) ([2]; green tea 0.2%, storage 0 d): 3%
- bound catechins (% recovered in pellet) ([2]; green tea 0.2%, storage 2 d): 0%
- bound catechins (% recovered in pellet) ([2]; green tea 0.2%, storage 9 d): 0%
- bound catechins (% recovered in pellet) ([2]; green tea 0.2%, storage 13 d): 0%
- bound catechins (% recovered in pellet) ([2]; green tea 0.2%, storage 22 d): 0%

SMILES: O=C(O[C@@H]1Cc2c(O)cc(O)cc2O[C@@H]1c1cc(O)c(O)c(O)c1)c1cc(O)c(O)c(O)c1 [Egcg, (−)-epigallocatechin-3-gallate]
- catechins (% recovered) [1, 3]: 100%
- catechins (% recovered) [1, 4]: 95%
- catechins (% recovered) [1, 5]: 78%
- catechins (% recovered) [1, 6]: 68%
- catechins (% recovered) [1, 7]: 55%
- catechins (% recovered) [1, 8]: 100%
- catechins (% recovered) [1, 9]: 98%
- catechins (% recovered) [1, 10]: 82%
- catechins (% recovered) [1, 11]: 74%
- catechins (% recovered) [1, 12]: 62%
- catechins (% recovered) [1, 13]: 100%
- catechins (% recovered) [1, 14]: 99%
- catechins (% recovered) [1, 15]: 88%
- catechins (% recovered) [1, 16]: 82%
- catechins (% recovered) [1, 17]: 71%
- catechins (% recovered) ([1]; green tea 0.2%, storage 0 d): 100%
- catechins (% recovered) ([1]; green tea 0.2%, storage 2 d): 94%
- catechins (% recovered) ([1]; green tea 0.2%, storage 9 d): 67%
- catechins (% recovered) ([1]; green tea 0.2%, storage 13 d): 53%
- catechins (% recovered) ([1]; green tea 0.2%, storage 22 d): 33%
- stabilisation by lecithin during storage (in words) ([1]; storage of the green tea samples): dose-dependent stabilisation
- bound catechins (% recovered in pellet) [2, 3]: 18%
- bound catechins (% recovered in pellet) [2, 4]: 17%
- bound catechins (% recovered in pellet) [2, 5]: 21%
- bound catechins (% recovered in pellet) [2, 6]: 22%
- bound catechins (% recovered in pellet) [2, 7]: 22%
- bound catechins (% recovered in pellet) [2, 8]: 33%
- bound catechins (% recovered in pellet) [2, 9]: 30%
- bound catechins (% recovered in pellet) [2, 10]: 37%
- bound catechins (% recovered in pellet) [2, 11]: 38%
- bound catechins (% recovered in pellet) [2, 12]: 39%
- bound catechins (% recovered in pellet) [2, 13]: 46%
- bound catechins (% recovered in pellet) [2, 14]: 45%
- bound catechins (% recovered in pellet) [2, 15]: 53%
- bound catechins (% recovered in pellet) [2, 16]: 55%
- bound catechins (% recovered in pellet) [2, 17]: 59%
- bound catechins (% recovered in pellet) ([2]; green tea 0.2%, storage 0 d): 1%
- bound catechins (% recovered in pellet) ([2]; green tea 0.2%, storage 2 d): 1%
- bound catechins (% recovered in pellet) ([2]; green tea 0.2%, storage 9 d): 1%
- bound catechins (% recovered in pellet) ([2]; green tea 0.2%, storage 13 d): 2%
- bound catechins (% recovered in pellet) ([2]; green tea 0.2%, storage 22 d): 2%
- binding to the lecithin (in words) [2]: interact with the added lecithin
- percentage of bound Egcg during storage (in words) ([2]; lecithin containing green tea samples during storage): not only remained constant but rather slightly increased with time

SMILES: O=C(O[C@@H]1Cc2c(O)cc(O)cc2O[C@@H]1c1ccc(O)c(O)c1)c1cc(O)c(O)c(O)c1 [Ecg, epicatechin gallate]
- binding to the lecithin (in words) [2]: interact with the added lecithin

Reference: patent US9265276B2, “Reducing astringency in compositions containing phenolic compounds” (Nestec S.A., priority 2008, dated 2016)
